This is an account of results in patent US9610255B2, “Lycopene and resveratrol dietary supplement” (HSIEHS BIOTECH (SINGAPORE) PTE LTD, priority 2009, dated 2017).

For data set [1] the following is noted: Di Mascio P., 1989; cited from earlier work.
A further data set relates to prostatic carcinoma. Particulars: 47,000 participants over 6 years (Giovannucci, E., 1995); cited from earlier work.
The conditions of data set [2]: human, in vivo, po.
The conditions of data set [3]: cited from earlier work.
Data set [4] can be described thus: Distribution in the body after oral intake.

In the case of `CC(C)=CCC/C(C)=C/C=C/C(C)=C/C=C/C(C)=C/C=C/C=C(C)/C=C/C=C(C)/C=C/C=C(\C)CCC=C(C)C` [lycopene], the “activity in quenching oxygen-singlet among all carotenoids including β-carotene” value in data set [1] is listed as “highest activity”. Further, in the data set with prostatic carcinoma, the “lowering of incidence of prostatic carcinoma in the lycopene group” value was “over 30%”. Also, the “share of adsorbed compound that goes to the prostate and other internal organs” value in data set [2] is recorded as “over 90%”. In data set [3], the solubility in water result is on record as “water-insoluble”.

For `Oc1ccc(/C=C/c2cc(O)cc(O)c2)cc1` [resveratrol], the “main distribution in the body” value in data set [4] was “heart, circulation system, along respiratory tract and skin”. In addition, in data set [3], the “solubility in organic solvents such as ethanol and acetone” value is “soluble”; the solubility in water result is “slightly soluble”.
